From patent US20200164005A1, “PHARMACEUTICAL COMPOSITIONS OF A BILE ACID DERIVATIVE AND MICROBIOME AND USES THEREOF” (Intercept Pharmaceuticals, Inc., priority 2017, published 2020)

Key:
[1] = test system: KEGG pathways of the gut microbiome; assay: KEGG pathway differential abundance analysis of stool metagenome; assay type: in vivo, human; design: key to * (direction of KEGG pathway change): “↑” means the pathway is up-regulated on day 16; “↓” means the pathway is down-regulated on day 16; settings: for * (direction of KEGG pathway change): KEGG pathway of the table row, day 16
From the text: HUMAnN2 (Abubucker et al., PLoS Comput. Biol. 8, e1002358 (2012)) was used to calculate gene and pathway abundance from metagenomic sequencing data. Uniref50 (UniProt® Consortium, Nucleic Acids Res. 43, D204 (2015)) was used for gene family definition. MetaCyc (Caspi et al., Nucleic Acids Res. 42, D459 (2014)) and KEGG (Kanehisa and Goto, Nucleic Acids Res. 28, 27 (2000); Kanehisa et al., Nucleic Acids Res. 44, D457 (2016)) were used for pathway analysis. • Gene family identification: Initially, 989251 gene families were identified from the dataset by HUMAnN2. Quantile normalization was implemented. For each sample, the RPK values were added up till 90% percentile of all genes (normalization factor, nf). RPK value of each gene in each sample was then divided by the nf of the sample, and multiplied with the mean of nf of all samples. 683270 uncharacterized genes were removed. Genes undetected in over 90% of samples (101994) were removed. 203987 genes were kept. Due to the large number of genes identified, 25% of the most varying genes were selected for further analysis. The most varying genes were defined by the coefficient variation (cv=sd/mean) of log 2 transformed value. • MetaCyc pathway identification: HUMAnN2 identified 567 MetaCyc pathways from the dataset. Quantile normalization was then performed. For each sample, the abundance values were added up till 90% percentile of all pathways (normalization factor, nf). Each pathway abundance in each sample was divided by the nf of the sample, and then multiplied with the mean of nf for all samples. The low abundance pathways (52), which were not detected on over 90% of all samples, were removed. 515 high quality MetaCyc pathways were kept for further analysis. • KEGG pathway identification: HUMAnN2 identified 160 KEGG pathways from the dataset. Quantile normalization was applied, and low abundance pathways were removed. 66 high quality KEGG pathways were kept for further analysis.
gene abundance˜aov(day*OCAdose+error(subject ID)) • Pathway differential abundance analysis: For each of the identified pathways, repeated measure ANOVA was also performed to study the time effect and OCA dose effect on pathway abundance change.
pathway abundance˜aov(day*OCAdose+error(subject ID)) • FGF19 analysis: The GEE model was applied in order to study the relationship of FGF19 change with the microbiome, gene family, and the pathway abundance change over time. The R function geeglm from R package geepack was used for gee modeling. Both FGF19 level and species/gene/pathway relative abundance were log 2 transformed before applying GEE model.

[2] = target: T1, farnesoid X receptor (FXR) (Homo sapiens, UniProt Q96RI1); settings: cited from earlier work
T1 sequence (Q96RI1 1-486): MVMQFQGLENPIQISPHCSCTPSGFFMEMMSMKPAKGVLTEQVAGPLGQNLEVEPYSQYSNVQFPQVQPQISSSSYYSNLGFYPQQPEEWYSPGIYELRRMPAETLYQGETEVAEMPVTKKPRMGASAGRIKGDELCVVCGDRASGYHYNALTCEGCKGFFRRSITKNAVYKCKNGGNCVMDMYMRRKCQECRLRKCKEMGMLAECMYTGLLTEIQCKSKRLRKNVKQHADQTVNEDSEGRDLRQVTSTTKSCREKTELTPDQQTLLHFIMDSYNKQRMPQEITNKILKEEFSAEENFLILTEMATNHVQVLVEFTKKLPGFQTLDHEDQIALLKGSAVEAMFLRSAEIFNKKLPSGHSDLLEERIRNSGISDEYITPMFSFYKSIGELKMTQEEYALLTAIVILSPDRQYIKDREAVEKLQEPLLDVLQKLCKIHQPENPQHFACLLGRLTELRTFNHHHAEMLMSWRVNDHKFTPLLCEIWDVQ

## CC[C@H]1[C@@H](O)[C@@H]2[C@H](CC[C@]3(C)[C@@H]([C@H](C)CCC(=O)O)CC[C@@H]23)[C@@]2(C)CC[C@@H](O)C[C@@H]12 [OCA, 3α,7α-dihydroxy-6α-ethyl-5β-cholan-24-oic acid]
[1]; Fatty acid biosynthesis
  * (direction of KEGG pathway change): ↓
[1]; Purine metabolism
  * (direction of KEGG pathway change): ↑
[1]; of 66, FDR<0.05 for time effect
  number of KEGG pathways differentially abundant over time: 26
[1]; repeated measure ANOVA, FDR<0.05
  OCA dose effect on KEGG pathway abundance: No OCA dose or dose×day interaction was observed
[2]
  potency as FXR agonist relative to the endogenous FXR agonist CDCA: 100 fold
